For assay [1], the target named is T1, isolated recombinant JAK2 kinase domain (Homo sapiens, UniProt O60674).
T1 construct: isolated recombinant JAK1 and JAK2 kinase domain
As to the kind of experiment: JAK enzyme assay, JAK2 kinase domain (Caliper LabChip). It counts as biochemical. Conditions: 0.2 nM JAK2, ATP 25 μM, Morrison tight binding model. The method, then:
(§1) JAK Enzyme Assays were Carried Out as Follows:
(§2) The activity of the isolated recombinant JAK1 and JAK2 kinase domain was measured by monitoring phosphorylation of a peptide derived from JAK3 ([…] fluorescently labeled on the N-terminus with 5-carboxyfluorescein) using the Caliper LabChip® technology (Caliper Life Sciences, Hopkinton, Mass.). To determine inhibition constants (K), compounds were diluted serially in DMSO and added to 50 μL kinase reactions containing purified enzyme (1.5 nM JAK1, or 0.2 nM JAK2), 100 mM HEPES buffer (pH 7.2), 0.015% Brij-35, 1.5 μM peptide substrate, ATP (25 μM), 10 mM MgCl2, 4 mM DTT at a final DMSO concentration of 2%.
(§3) Reactions were incubated at 22° C. in 384-well polypropylene microtiter plates for 30 minutes and then stopped by addition of 25 µL of an EDTA containing solution (100 mM HEPES buffer (pH 7.2), 0.015% Brij-35, 150 mM EDTA), resulting in a final EDTA concentration of 50 mM. After termination of the kinase reaction, the proportion of phosphorylated product was determined as a fraction of total peptide substrate using the Caliper LabChip® 3000 according to the manufacturer's specifications. K values were then determined using the Morrison tight binding model (Morrison, J. F., Biochim. Biophys. Acta. 185:269-296 (1969); William, J. W. and Morrison, J. F., Meth. Enzymol., 63:437-467 (1979)) modified for ATP-competitive inhibition [Ki=Ki, app/(1+[ATP]/Km,app)].

In assay [2] the test system is JAK1-dependent STAT6 phosphorylation downstream of IL-13 stimulation, BEAS-2B human bronchial epithelial cells. The assay is described as follows: JAK1 pathway assay in cell lines: IL-13 stimulated STAT6 phosphorylation in BEAS-2B cells (MSD). The format is cell-based. Conditions: IL-13 stimulation 15 min at EC90, read-out: IL-13 p-STAT6 BEAS-2B IC50. The method, then:
JAK1 Pathway Assay in Cell Lines was Carried Out as Follows:
Inhibitor potency (EC50) was determined in cell-based assays designed to measure JAK1 dependent STAT phosphorylation. As noted above, inhibition of IL-4, IL-13, and IL-9 signaling by blocking the Jak/Stat signaling pathway can alleviate asthmatic symptoms in pre-clinical lung inflammation models (Mathew et al., 2001, J Exp Med 193(9): 1087-1096; Kudlacz et. al., 2008, Eur J. Pharmacol 582(1-3): 154-161).
In one assay approach, TF-1 human erythroleukemia cells obtained from the American Type Culture Collection (ATCC; Manassas, Va.) were used to measure JAK1-dependent STAT6 phosphorylation downstream of IL-13 stimulation. Prior to use in the assays, TF-1 cells were starved of GM-CSF overnight in OptiMEM medium (Life Technologies, Grand Island, N.Y.) supplemented with 0.5% charcoal/dextran stripped fetal bovine serum (FBS), 0.1 mM non-essential amino acids (NEAA), and 1 mM sodium pyruvate. The assays were run in 384-well plates in serum-free OptiMEM medium using 300,000 cells per well. In a second assay approach, BEAS-2B human bronchial epithelial cells obtained from ATCC were plated at 100,000 cells per well of a 96-well plate one day prior to the experiment. The BEAS-2B assay was run in complete growth medium (bronchial epithelial basal medium plus bulletkit; Lonza; Basel, Switzerland).
Test compounds were serially diluted 1:2 in DMSO and then diluted 1:50 in medium just before use. Diluted compounds were added to the cells, for a final DMSO concentration of […], and incubated for 30 m (for the TF-1 assay) or […] (for the BEAS-2B assay) at 37° C. Then, cells were stimulated with human recombinant cytokine at their respective EC90 concentrations, as previously determined for each individual lot. Cells were stimulated with IL-13 (R&D Systems, Minneapolis, Minn.) for 15 min at 37° C. The TF-1 cell reactions were stopped by the direct addition of 10× lysis buffer (Cell Signaling Technologies, Danvers, Mass.), whereas the BEAS-2B cell incubations were halted by the removal of medium and addition of 1× lysis buffer. The resultant samples were frozen in the plates at −80° C. Compound mediated inhibition of STAT6 phosphorylation was measured in the cell lysates using MesoScale Discovery (MSD) technology (Gaithersburg, Md.).

The target of assay [3] is T2, isolated recombinant JAK1 kinase domain (Homo sapiens, UniProt P23458).
T2 construct: isolated recombinant JAK1 and JAK2 kinase domain
T2 sequence (P23458 875-1153 limits assumed): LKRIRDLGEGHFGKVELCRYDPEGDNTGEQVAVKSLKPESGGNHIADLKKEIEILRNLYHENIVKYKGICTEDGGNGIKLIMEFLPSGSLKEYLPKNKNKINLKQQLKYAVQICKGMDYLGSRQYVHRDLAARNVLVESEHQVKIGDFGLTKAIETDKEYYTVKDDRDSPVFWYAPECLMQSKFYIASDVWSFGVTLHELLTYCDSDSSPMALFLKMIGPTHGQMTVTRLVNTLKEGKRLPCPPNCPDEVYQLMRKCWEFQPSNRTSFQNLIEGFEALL
The assay is described as follows: JAK enzyme assay, JAK1 kinase domain (Caliper LabChip). The format is biochemical. The note with it: 1.5 nM JAK1, ATP 25 μM, Morrison tight binding model. The method, then: as §1, §2, §3

Where two headings read alike, the source gives them in different places.

What is called Ki is a dissociation constant, usually derived from enzyme kinetics or from competition with a known ligand. The IC50 is the concentration at which inhibition is half-maximal.

T1 sequence (O60674 849-1124 limits assumed): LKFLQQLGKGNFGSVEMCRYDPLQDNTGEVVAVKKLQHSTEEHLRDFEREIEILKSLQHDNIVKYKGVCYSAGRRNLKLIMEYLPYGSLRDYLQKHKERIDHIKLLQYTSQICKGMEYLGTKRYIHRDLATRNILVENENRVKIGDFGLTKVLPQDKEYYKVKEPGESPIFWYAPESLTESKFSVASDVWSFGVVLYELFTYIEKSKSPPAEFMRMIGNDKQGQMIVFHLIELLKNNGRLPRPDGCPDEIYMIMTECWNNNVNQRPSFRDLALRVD

On to `CN1CCC(n2cc(NC(=O)c3cnn4cccnc34)c(-c3cc4c(cc3OC(F)F)NCCO4)n2)C1=O` (single isomer, unassigned) [Example 10, N-[3-[6-(difluoromethoxy)-3,4-dihydro-2H-1,4-benzoxazin-7-yl]-1-(1-methyl-2-oxo-pyrrolidin-3-yl)pyrazol-4-yl]pyrazolo[1,5-a]pyrimidine-3-carboxamide], for which the Ki in assay [1] came to 0.58 nM; in assay [3], 0.37 nM. For the same compound, the IC50 in assay [2] (Homo sapiens, BEAS-2B, […]) was found to be 190 nM.

In the case of `CN1CCC(n2cc(NC(=O)c3cnn4cccnc34)c(-c3cc4c(cc3OC(F)F)NCCO4)n2)C1=O` (single isomer, unassigned) [Example 11, N-[3-[6-(difluoromethoxy)-3,4-dihydro-2H-1,4-benzoxazin-7-yl]-1-(1-methyl-2-oxo-pyrrolidin-3-yl)pyrazol-4-yl]pyrazolo[1,5-a]pyrimidine-3-carboxamide], the Ki in assay [1] is 0.5 nM; in assay [3], 1.2 nM. Besides, in assay [2], the IC50 stood at 230 nM.

As for `CN1CCC(n2cc(NC(=O)c3cnn4cccnc34)c(-c3cc4c(cc3OC(F)F)NCCS4)n2)C1=O` (single isomer, unassigned) [Example 13, N-[3-[6-(difluoromethoxy)-3,4-dihydro-2H-1,4-benzothiazin-7-yl]-1-(1-methyl-2-oxo-pyrrolidin-3-yl)pyrazol-4-yl]pyrazolo[1,5-a]pyrimidine-3-carboxamide], the results for the inhibition constant (Ki) in assay [1] and in assay [3] were 0.43 nM and 0.88 nM, respectively. Moreover, the IC50 in assay [2] came to 290 nM.

For `O=C(Nc1cn(C2CCN(CCN3CCOCC3)C2=O)nc1-c1cc(Cl)ccc1OC(F)F)c1cnn2cccnc12` (single isomer, unassigned) [Example 14, N-[3-[5-chloro-2-(difluoromethoxy)phenyl]-1-[1-(2-morpholinoethyl)-2-oxo-pyrrolidin-3-yl]pyrazol-4-yl]pyrazolo[1,5-a] pyrimidine-3-carboxamide], the Ki was determined as 1.4 nM in assay [1] and 1.2 nM in assay [3]. Besides, in assay [2] (Homo sapiens, BEAS-2B, […]), the IC50 was 79 nM.

Turning to `CN1CCN(C(=O)CN2CCC(n3cc(NC(=O)c4cnn5cccnc45)c(-c4cc(Cl)ccc4OC(F)F)n3)C2=O)CC1` (single isomer, unassigned) [Example 16, N-[3-[5-chloro-2-(difluoromethoxy)phenyl]-1-[1-[2-(4-methylpiperazin-1-yl)-2-oxo-ethyl]-2-oxo-pyrrolidin-3-yl]pyrazol-4-yl]pyrazolo[1,5-a]pyrimidine-3-carboxamide], the results for the Ki in assay [1] and in assay [3] were 0.68 nM and 2.8 nM, respectively. Moreover, in assay [2] (Homo sapiens, BEAS-2B, […]), the IC50 was 200 nM.

On to `CN1CCN(C(=O)CN2CCC(n3cc(NC(=O)c4cnn5cccnc45)c(-c4cc(Cl)ccc4OC(F)F)n3)C2=O)CC1` (single isomer, unassigned) [Example 17, N-[3-[5-chloro-2-(difluoromethoxy)phenyl]-1-[1-[2-(4-methylpiperazin-1-yl)-2-oxo-ethyl]-2-oxo-pyrrolidin-3-yl]pyrazol-4-yl]pyrazolo[1,5-a]pyrimidine-3-carboxamide], for which the Ki in assay [1] worked out at 1.5 nM; in assay [3], 2.6 nM. The IC50 in assay [2] came out at 300 nM.

In the case of `CN1CCC(n2cc(NC(=O)c3cnn4cccnc34)c(-c3cc(SC(F)F)ccc3OC(F)F)n2)C1=O` (single isomer, unassigned) [Example 18, N-[3-[2-(difluoromethoxy)-5-(difluoromethyl-sulfanyl)phenyl]-1-(1-methyl-2-oxo-pyrrolidin-3-yl)pyrazol-4-yl]pyrazolo[1,5-a]pyrimidine-3-carboxamide], the figures for the Ki in assay [1] and in assay [3] were 0.39 nM and 0.28 nM, respectively. For the same compound, the IC50 in assay [2] stood at 15 nM.

As to `CN1CCC(n2cc(NC(=O)c3cnn4cccnc34)c(-c3cc(SC(F)F)ccc3OC(F)F)n2)C1=O` (single isomer, unassigned) [Example 19, N-[3-[2-(difluoromethoxy)-5-(difluoromethyl-sulfanyl)phenyl]-1-(1-methyl-2-oxo-pyrrolidin-3-yl)pyrazol-4-yl]pyrazolo[1,5-a]pyrimidine-3-carboxamide], the Ki was found to be 0.55 nM in assay [1] and 2.5 nM in assay [3]. The IC50 in assay [2] came to 59 nM.

`CN1CCCC(n2cc(NC(=O)c3cnn4cccnc34)c(-c3cc(Cl)ccc3OC(F)F)n2)C1=O` (single isomer, unassigned) [Example 20, N-[3-[5-chloro-2-(difluoromethoxy)phenyl]-1-(1-methyl-2-oxo-3-piperidyl)pyrazol-4-yl]pyrazolo[1,5-a]pyrimidine-3-carboxamide]: the Ki in assay [1] came out at 1.5 nM; in assay [3] it was 0.48 nM. In addition, in assay [2], the IC50 came out at 24 nM.

On to `CN1CCCC(n2cc(NC(=O)c3cnn4cccnc34)c(-c3cc(Cl)ccc3OC(F)F)n2)C1=O` (single isomer, unassigned) [Example 21, N-[3-[5-chloro-2-(difluoromethoxy)phenyl]-1-(1-methyl-2-oxo-3-piperidyl)pyrazol-4-yl]pyrazolo[1,5-a]pyrimidine-3-carboxamide], for which the Ki in assay [1] worked out at 2.1 nM; in assay [3], 4.1 nM. Besides, the IC50 in assay [2] turned out to be 74 nM.

For `O=C(Nc1cn(C2CCN(C3COC3)C2=O)nc1-c1cc(Cl)ccc1OC(F)F)c1cnn2cccnc12` (single isomer, unassigned) [Example 23, N-[3-[5-chloro-2-(difluoromethoxy)phenyl]-1-[1-(oxetan-3-yl)-2-oxo-pyrrolidin-3-yl]pyrazol-4-yl]pyrazolo[1,5-a]pyrimidine-3-carboxamide], the Ki in assay [1] came out at 0.54 nM; in assay [3], 0.51 nM. In addition, in assay [2], the IC50 came out at 23 nM.

Turning to `O=C(Nc1cn(C2CCN(C3COC3)C2=O)nc1-c1cc(Cl)ccc1OC(F)F)c1cnn2cccnc12` (single isomer, unassigned) [Example 24, N-[3-[5-chloro-2-(difluoromethoxy)phenyl]-1-[1-(oxetan-3-yl)-2-oxo-pyrrolidin-3-yl]pyrazol-4-yl]pyrazolo[1,5-a]pyrimidine-3-carboxamide], the Ki came to 0.98 nM in assay [1] and 3.9 nM in assay [3]. Moreover, in assay [2], the IC50 is 57 nM.

On to `O=C(Nc1cn(C2CCOC2=O)nc1-c1cc(Cl)ccc1OC(F)F)c1cnn2cccnc12` (single isomer, unassigned) [Example 27, N-[3-[5-chloro-2-(difluoromethoxy)phenyl]-1-(2-oxotetrahydrofuran-3-yl)pyrazol-4-yl]pyrazolo[1,5-a]pyrimidine-3-carboxamide], for which the results for the Ki in assay [1] and in assay [3] were 0.5 nM and 0.77 nM, respectively. The IC50 in assay [2] was 24 nM.

Turning to `O=C(Nc1cn(C2CCOC2=O)nc1-c1cc(Cl)ccc1OC(F)F)c1cnn2cccnc12` (single isomer, unassigned) [Example 28, N-[3-[5-chloro-2-(difluoromethoxy)phenyl]-1-(2-oxotetrahydrofuran-3-yl)pyrazol-4-yl]pyrazolo[1,5-a]pyrimidine-3-carboxamide], the Ki in assay [1] came to 0.2 nM; in assay [3], 0.35 nM. In assay [2], the 50% inhibitory concentration (IC50) worked out at 11 nM.
